This note sets out measurements from ChEMBL document CHEMBL4052759, “Discovery of DS79182026: A potent orally active hepcidin production inhibitor” (Bioorg Med Chem Lett, 2017).

Data set [1] in a line: Volume of distribution in C57BL/6J mouse at 30 mg/kg, iv by LC-MS/MS analysis. The class given is ADME, organism-based. The settings on record: in vivo.
The species named for a further data set is Homo sapiens. Briefly: Inhibition of PKA (unknown origin) at 0.49 uM relative to control.
Data set [2] concerns the target Testis-specific serine/threonine-protein kinase 1 (Homo sapiens) (UniProt Q9BXA7). Description: Inhibition of TSSK1 (unknown origin) at 0.49 uM relative to control.
Data set [3] has as its target Casein kinase I isoform gamma-2 (Homo sapiens) (UniProt P78368). Description: Inhibition of Casein kinase 1g2 (unknown origin) at 0.49 uM relative to control.
Data set [4] deals with T1, cGMP-dependent protein kinase 1 (Homo sapiens) (UniProt Q13976).
T1 sequence (whole entry): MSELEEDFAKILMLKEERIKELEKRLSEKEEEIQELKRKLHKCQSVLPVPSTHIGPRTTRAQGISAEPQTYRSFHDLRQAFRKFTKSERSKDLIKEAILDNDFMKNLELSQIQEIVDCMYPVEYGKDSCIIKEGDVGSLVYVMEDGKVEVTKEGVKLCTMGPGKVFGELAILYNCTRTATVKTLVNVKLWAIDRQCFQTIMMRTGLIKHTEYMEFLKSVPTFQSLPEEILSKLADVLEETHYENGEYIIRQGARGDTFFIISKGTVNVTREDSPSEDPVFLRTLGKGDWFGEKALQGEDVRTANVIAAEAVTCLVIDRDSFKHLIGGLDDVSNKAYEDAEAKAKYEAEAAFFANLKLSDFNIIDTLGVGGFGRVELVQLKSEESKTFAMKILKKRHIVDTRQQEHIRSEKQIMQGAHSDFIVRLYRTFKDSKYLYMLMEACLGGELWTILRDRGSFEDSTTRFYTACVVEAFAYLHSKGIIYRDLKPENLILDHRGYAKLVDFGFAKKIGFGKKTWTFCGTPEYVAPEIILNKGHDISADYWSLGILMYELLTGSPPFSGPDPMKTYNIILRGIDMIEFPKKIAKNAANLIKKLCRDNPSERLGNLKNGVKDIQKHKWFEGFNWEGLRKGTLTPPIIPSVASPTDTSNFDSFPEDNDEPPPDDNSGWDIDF
Briefly: Inhibition of PKG-alpha (unknown origin) at 0.49 uM relative to control.

For data set [5], the target named is Rho-associated protein kinase 2 (Homo sapiens) (UniProt O75116). Briefly: Inhibition of ROCK2 (unknown origin) at 0.49 uM relative to control.
Data set [6] deals with Aurora kinase C (Homo sapiens) (UniProt Q9UQB9). Briefly: Inhibition of AurC (unknown origin) at 0.49 uM relative to control.
For data set [7], the target named is AMPK alpha2/beta1/gamma1 (Homo sapiens) (UniProt P54646+P54619+Q9Y478). Briefly: Inhibition of AMPK-alpha2/beta1/gamma1 (unknown origin) at 0.49 uM relative to control. Format: protein-complex assay.
Chain of AMPK alpha2/beta1/gamma1 (Homo sapiens) (P54619 whole entry partner): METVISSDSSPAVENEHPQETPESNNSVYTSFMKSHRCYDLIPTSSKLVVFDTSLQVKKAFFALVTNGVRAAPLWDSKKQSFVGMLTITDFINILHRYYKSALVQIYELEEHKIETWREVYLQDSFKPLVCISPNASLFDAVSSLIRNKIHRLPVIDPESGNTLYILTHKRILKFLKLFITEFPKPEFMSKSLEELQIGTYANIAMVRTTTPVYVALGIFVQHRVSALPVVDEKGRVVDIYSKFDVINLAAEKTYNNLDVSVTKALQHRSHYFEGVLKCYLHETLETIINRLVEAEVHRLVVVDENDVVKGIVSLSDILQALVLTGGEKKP
Chain of AMPK alpha2/beta1/gamma1 (Homo sapiens) (P54646 whole entry): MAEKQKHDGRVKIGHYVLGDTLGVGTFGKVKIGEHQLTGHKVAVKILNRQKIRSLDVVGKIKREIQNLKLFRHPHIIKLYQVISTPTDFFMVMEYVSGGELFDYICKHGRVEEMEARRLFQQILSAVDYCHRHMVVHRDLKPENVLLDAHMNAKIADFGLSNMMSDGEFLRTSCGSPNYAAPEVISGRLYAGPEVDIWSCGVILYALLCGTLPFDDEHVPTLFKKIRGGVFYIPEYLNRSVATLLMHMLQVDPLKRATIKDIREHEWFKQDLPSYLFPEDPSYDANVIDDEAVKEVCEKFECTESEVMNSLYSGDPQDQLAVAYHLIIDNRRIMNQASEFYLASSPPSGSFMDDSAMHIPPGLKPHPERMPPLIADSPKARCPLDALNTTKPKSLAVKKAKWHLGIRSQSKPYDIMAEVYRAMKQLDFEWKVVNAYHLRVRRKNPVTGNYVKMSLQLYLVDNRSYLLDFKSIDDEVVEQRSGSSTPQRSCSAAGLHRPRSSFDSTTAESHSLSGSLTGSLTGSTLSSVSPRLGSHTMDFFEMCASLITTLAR
Chain of AMPK alpha2/beta1/gamma1 (Homo sapiens) (Q9Y478 2-270 partner limits assumed): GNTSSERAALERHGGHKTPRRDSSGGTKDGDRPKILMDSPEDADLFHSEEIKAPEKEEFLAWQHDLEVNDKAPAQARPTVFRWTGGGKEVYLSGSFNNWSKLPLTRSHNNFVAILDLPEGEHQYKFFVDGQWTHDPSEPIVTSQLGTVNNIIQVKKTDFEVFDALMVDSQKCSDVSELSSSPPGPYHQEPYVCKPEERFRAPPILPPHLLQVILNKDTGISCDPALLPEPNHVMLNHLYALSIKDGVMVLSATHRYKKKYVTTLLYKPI
Data set [8] concerns the target Serine/threonine-protein kinase BRSK1 (Homo sapiens) (UniProt Q8TDC3). Briefly: Inhibition of BRSK1 (unknown origin) at 0.49 uM relative to control.
Data set [9] concerns the target Dual specificity protein kinase CLK2 (Homo sapiens) (UniProt P49760). Description: Inhibition of CLK2 (unknown origin) at 0.49 uM relative to control.
Data set [10] deals with Tyrosine-protein kinase JAK3 (Homo sapiens) (UniProt P52333). Briefly: Inhibition of JAK3 (unknown origin) at 0.49 uM relative to control.
Chain of Tyrosine-protein kinase JAK3 (Homo sapiens) (P52333 whole entry): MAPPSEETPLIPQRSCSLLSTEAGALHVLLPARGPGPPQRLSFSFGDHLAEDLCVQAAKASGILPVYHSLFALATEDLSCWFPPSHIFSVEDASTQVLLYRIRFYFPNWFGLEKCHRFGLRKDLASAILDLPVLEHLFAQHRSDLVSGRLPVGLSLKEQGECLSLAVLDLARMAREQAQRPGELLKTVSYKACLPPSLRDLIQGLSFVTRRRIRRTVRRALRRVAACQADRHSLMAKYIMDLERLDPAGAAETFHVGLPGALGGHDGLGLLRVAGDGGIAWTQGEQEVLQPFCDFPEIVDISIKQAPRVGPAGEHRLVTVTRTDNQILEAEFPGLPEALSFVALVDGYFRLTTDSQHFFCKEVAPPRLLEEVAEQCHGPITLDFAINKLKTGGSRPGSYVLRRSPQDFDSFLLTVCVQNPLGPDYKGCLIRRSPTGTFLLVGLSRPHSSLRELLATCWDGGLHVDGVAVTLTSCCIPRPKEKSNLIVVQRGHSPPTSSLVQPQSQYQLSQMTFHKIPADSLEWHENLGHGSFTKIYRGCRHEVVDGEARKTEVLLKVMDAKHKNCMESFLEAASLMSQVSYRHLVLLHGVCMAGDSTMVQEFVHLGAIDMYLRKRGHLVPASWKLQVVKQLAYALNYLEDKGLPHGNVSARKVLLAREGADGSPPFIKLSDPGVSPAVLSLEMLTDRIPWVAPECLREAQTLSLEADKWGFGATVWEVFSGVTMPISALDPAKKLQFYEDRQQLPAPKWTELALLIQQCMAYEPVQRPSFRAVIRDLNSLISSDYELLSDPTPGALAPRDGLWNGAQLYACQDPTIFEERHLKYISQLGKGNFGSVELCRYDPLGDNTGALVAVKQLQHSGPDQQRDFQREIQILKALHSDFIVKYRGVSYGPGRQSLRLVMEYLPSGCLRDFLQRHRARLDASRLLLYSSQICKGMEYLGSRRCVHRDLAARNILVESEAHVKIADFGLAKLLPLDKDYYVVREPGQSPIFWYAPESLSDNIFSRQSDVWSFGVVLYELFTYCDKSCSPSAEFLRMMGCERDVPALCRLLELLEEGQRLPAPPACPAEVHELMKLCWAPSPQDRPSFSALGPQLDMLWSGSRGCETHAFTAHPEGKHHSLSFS
Data set [11] addresses MAP/microtubule affinity-regulating kinase 4 (Homo sapiens) (UniProt Q96L34). Briefly: Inhibition of MARK4 (unknown origin) at 0.49 uM relative to control.
Data set [12] concerns the target T2, Serine/threonine-protein kinase 3 (Homo sapiens) (UniProt Q13188).
T2 sequence (whole entry): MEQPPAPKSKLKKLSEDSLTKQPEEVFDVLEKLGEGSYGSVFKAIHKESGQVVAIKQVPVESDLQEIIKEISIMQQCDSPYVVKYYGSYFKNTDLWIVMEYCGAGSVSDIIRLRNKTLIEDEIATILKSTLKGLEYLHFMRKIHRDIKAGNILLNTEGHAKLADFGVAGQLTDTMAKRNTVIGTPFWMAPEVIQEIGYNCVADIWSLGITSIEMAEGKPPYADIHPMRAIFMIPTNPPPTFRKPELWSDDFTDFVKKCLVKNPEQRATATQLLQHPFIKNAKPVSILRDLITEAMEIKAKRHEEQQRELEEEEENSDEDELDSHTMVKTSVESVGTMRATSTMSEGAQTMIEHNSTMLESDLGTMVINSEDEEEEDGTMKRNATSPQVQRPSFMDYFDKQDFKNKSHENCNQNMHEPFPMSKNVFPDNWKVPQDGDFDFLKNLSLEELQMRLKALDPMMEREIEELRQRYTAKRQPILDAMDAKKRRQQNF
Briefly: Inhibition of MST2 (unknown origin) at 0.49 uM relative to control.

The target of data set [13] is Tyrosine-protein kinase ABL2 (Homo sapiens) (UniProt P42684). Briefly: Inhibition of Arg (unknown origin) at 0.49 uM relative to control.
Data set [14] has as its target Tyrosine-protein kinase SYK (Homo sapiens) (UniProt P43405). Description: Inhibition of SYK (unknown origin) at 0.49 uM relative to control.
Data set [15] concerns the target Cyclin-dependent kinase 5/CDK5 activator 1 (Homo sapiens) (UniProt Q00535+Q15078). Description: Inhibition of CDK5/p25 (unknown origin) at 0.45 uM relative to control. Format: protein-complex assay.
The target of data set [16] is Tyrosine-protein kinase Fes/Fps (Homo sapiens) (UniProt P07332). Briefly: Inhibition of FES (unknown origin) at 0.45 uM relative to control.
Chain of Tyrosine-protein kinase Fes/Fps (Homo sapiens) (P07332 whole entry): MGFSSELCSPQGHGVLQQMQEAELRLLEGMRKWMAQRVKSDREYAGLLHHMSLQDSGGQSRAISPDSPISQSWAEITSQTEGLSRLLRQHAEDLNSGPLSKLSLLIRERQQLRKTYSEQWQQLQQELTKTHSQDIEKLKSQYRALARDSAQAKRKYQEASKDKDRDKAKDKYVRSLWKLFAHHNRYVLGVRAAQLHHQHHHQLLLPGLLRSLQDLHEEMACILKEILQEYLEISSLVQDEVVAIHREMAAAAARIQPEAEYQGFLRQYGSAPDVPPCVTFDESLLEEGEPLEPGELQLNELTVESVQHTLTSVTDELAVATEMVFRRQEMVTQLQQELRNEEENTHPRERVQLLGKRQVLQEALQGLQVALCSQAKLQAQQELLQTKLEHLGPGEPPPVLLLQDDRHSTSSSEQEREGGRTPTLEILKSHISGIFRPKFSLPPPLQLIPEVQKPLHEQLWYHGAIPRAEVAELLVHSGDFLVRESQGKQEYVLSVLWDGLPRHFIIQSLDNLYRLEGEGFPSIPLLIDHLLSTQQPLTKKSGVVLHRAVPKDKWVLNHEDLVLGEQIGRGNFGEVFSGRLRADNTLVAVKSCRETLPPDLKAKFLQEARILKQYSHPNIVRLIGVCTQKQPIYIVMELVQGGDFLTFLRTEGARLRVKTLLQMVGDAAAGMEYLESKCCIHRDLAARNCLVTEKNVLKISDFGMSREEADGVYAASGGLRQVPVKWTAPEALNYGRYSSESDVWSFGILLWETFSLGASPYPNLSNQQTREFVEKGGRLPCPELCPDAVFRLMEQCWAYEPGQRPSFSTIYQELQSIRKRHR
For data set [17], the target named is Ribosomal protein S6 kinase alpha-1 (Homo sapiens) (UniProt Q15418). Description: Inhibition of RSK1 (unknown origin) at 0.45 uM relative to control.
In data set [18] the target is Serine/threonine-protein kinase Sgk3 (Homo sapiens) (UniProt Q96BR1). Description: Inhibition of SGK3 (unknown origin) at 0.45 uM relative to control.
Data set [19] deals with SRSF protein kinase 3 (Homo sapiens) (UniProt Q9UPE1). Description: Inhibition of MSSK1 (unknown origin) at 0.45 uM relative to control.
Chain of SRSF protein kinase 3 (Homo sapiens) (Q9UPE1 whole entry): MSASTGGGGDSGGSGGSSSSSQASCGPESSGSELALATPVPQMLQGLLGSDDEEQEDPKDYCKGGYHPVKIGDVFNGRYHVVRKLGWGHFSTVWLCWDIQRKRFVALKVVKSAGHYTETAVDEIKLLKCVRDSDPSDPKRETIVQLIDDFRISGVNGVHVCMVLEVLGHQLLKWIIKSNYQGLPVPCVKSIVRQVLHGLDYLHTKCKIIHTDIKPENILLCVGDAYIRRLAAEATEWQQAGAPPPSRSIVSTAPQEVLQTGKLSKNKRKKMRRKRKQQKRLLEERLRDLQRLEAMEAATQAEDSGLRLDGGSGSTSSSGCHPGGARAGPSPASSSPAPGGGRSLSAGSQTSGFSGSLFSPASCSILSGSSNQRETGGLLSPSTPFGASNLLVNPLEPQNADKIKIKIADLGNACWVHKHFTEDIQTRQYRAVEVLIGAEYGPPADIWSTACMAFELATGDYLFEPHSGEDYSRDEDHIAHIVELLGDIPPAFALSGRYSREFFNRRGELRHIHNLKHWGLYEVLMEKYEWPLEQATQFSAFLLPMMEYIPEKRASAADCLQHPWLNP
Data set [20] deals with Mitogen-activated protein kinase 11 (Homo sapiens) (UniProt Q15759). Briefly: Inhibition of p38-beta2 (unknown origin) at 0.45 uM relative to control.
The target of data set [21] is Leukocyte tyrosine kinase receptor (Homo sapiens) (UniProt P29376). Description: Inhibition of LTK (unknown origin) at 0.45 uM relative to control.
In data set [22] the target is Tyrosine-protein kinase Lyn (Homo sapiens) (UniProt P07948). Description: Inhibition of LYN (unknown origin) at 0.45 uM relative to control.
For data set [23], the system named is Tyrosine-protein kinase ABL1 (Homo sapiens), P00519 [T315I]. Briefly: Inhibition of Abl T315I mutant (unknown origin) at 0.45 uM relative to control.
Data set [24] concerns the target Discoidin domain-containing receptor 2 (Homo sapiens) (UniProt Q16832). Description: Inhibition of DDR2 (unknown origin) at 0.45 uM relative to control.

Chain of Cyclin-dependent kinase 5/CDK5 activator 1 (Homo sapiens) (Q00535 whole entry): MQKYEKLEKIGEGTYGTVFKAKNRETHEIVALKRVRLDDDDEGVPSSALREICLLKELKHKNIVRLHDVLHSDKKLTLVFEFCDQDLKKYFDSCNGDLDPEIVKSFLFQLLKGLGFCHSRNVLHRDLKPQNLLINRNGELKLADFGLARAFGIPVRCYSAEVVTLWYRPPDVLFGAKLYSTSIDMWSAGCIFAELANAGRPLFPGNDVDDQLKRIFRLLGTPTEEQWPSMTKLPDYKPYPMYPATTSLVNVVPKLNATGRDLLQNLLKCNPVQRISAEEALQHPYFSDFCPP
Chain of Cyclin-dependent kinase 5/CDK5 activator 1 (Homo sapiens) (Q15078 99-307 partner limits assumed): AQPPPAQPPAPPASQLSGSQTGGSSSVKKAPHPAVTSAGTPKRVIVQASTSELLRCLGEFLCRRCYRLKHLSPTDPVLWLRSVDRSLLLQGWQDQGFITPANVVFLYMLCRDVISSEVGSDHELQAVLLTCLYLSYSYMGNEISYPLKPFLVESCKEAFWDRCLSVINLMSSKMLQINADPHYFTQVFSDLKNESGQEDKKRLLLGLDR
Chain of Testis-specific serine/threonine-protein kinase 1 (Homo sapiens) (Q9BXA7 whole entry, canonical isoform): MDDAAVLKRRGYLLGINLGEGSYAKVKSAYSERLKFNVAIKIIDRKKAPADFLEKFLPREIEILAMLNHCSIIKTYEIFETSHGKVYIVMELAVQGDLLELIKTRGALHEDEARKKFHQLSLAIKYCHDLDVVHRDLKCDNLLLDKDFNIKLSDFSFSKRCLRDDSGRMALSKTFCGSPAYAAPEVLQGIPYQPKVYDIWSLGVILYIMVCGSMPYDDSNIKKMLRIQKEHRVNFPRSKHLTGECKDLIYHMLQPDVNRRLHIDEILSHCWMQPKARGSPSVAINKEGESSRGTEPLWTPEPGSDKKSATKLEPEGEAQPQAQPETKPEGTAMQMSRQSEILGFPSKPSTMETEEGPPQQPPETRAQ
Chain of Casein kinase I isoform gamma-2 (Homo sapiens) (P78368 whole entry, looked up, canonical isoform): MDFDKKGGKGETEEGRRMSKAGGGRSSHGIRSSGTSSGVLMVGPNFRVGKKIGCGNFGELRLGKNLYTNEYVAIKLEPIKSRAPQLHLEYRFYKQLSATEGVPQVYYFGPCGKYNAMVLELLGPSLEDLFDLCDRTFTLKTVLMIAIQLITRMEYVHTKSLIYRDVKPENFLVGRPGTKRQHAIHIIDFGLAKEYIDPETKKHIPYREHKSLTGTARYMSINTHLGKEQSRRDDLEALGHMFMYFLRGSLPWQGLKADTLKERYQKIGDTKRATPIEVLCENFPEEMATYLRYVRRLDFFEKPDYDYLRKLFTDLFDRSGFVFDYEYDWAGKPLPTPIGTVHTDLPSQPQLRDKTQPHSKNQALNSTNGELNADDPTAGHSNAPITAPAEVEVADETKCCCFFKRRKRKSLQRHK

Take `COC(=O)Nc1noc2cc(-c3c(-c4ccccn4)n[nH]c3C)ccc12`: the Vd (commonly a proportionality between amount in the body and measured concentration, not a real space) in [1] was 0.91 L/kg.
`Cc1[nH]nc(C2CC2)c1-c1ccc2c(NC(=O)C3CC3)noc2c1`: the inhibition (in general, the drop in the measured response relative to a control, in per cent) in the data set listed under Homo sapiens is 2.3%; in data set [2] it was 1%; in [3] it was 1%; in data set [4], 0%; in [5] it was 8.7%; in data set [6], -3.3%. Also, the inhibition was 3.3% in data set [7]; 1.7% in [8]; -0.7% in data set [9]; -7.3% in data set [10]; 8.7% in [11]; 1% in [12]. The inhibition in [13] amounted to 7.7%; in data set [14], 0.7%.
Consider `Cc1n[nH]c(C)c1-c1ccc2c(NC(=O)c3ccc(N4CCN(C)CC4)cc3)n[nH]c2c1`, for which the inhibition is 0.3% in data set [15]; -3.3% in data set [16]; 27.3% in [17]; 3.3% in data set [18]; 2% in [19]; -1.3% in data set [20]. Further, the inhibition turned out to be 0% in [21], 32.3% in [22], 58.7% in data set [23] and 66% in data set [24].
